Consider 8 compounds from US7893263B2, “Structural analogs of corosolic acid having anti-diabetic and anti-inflammatory properties” (Laila Nutraceuticals, priority 2004, dated 2011).

Data set [1] deals with Brine shrimp (Artemia salina) nauplii. The data set can be described thus: in vivo. The conditions noted are these: 24 h at 37° C., 10 nauplii per vial. The method, then:
(§1) Brine shrimp lethality: Brine shrimp (Artemia salina) nauplii were hatched using brine shrimp eggs in a conical shaped vessel (1 L), filled with sterile artificial sea water (prepared using sea salt 38 g/L and adjusted to pH 8.5 using 1 N NaOH) under constant aeration for 48 h. After hatching, 10 nauplii were drawn through a pepette and placed in each vial containing 4.5 mL brine solution and added various concentrations of drug solutions and volume was made upto 5 mL using brine solution and maintained at 37° C. for 24 h under the light of incandescent lamps and surviving larvae were counted. Each experiment was conducted along with control (vehicle treated), at various concentrations of the test substance in each set that contains 6 tubes and the average results are reported. The percentage lethality was determined by comparing the mean mortal larvae of test and control tubes. LC50 values were obtained from the plot of concentration (μg) vs. percentage lethality. Podophyllotoxin was used as a positive control.
(§2) The corosolic acid analogs of this invention are found to show significant brine shrimp lethality (Table 3; brine shrimp lethality is expressed in LC50 at μM concentration; lower the LC50 value, higher is the activity).

The next data set relates to 5-Lipoxygenase. The data set can be described thus: 5-Lipoxygenase inhibitory activity, colorimetric method (ferric xylenol orange, linoleic acid). Format: biochemical. The method, then: 5-Lipoxygenase activity: The corosolic acid analogs were screened for their 5-Lipoxygenase inhibitory potential using colorimetric method. The assay mixture contained 50 mM phosphate buffer pH 6.3, 5-Lipoxygenase, various concentrations of test substances in dimethyl sulphoxide and linoleic acid in a total volume of 0.5 mL, after 5 min incubation of above reaction mixture, 0.5 mL ferric xylenol orange reagent was added and OD was measured after two minutes at 585 nm using spectrophotometer. Controls were run along with test in a similar manner except using vehicle instead of test substance solution. Percent inhibition was calculated by comparing absorbance of test solution with that of control.
The corosolic acid analogs of this invention are found to show good 5-lipoxygenase activity (Table 2; 5-lipoxygenase activity is expressed in % of inhibition at 100 μM and 250 μM; higher the % inhibitory values, higher is the activity).

In a further data set the test system is Albino wistar rats. The data set can be described thus: Hypoglycemic activity: inhibition of sucrose-induced raise in serum glucose levels (SGL). The class given is in vivo. Also on record: Inhibitory rate (serum glucose level inhibitory rate): unit not given here. The conditions noted are these: oral dose 1 mg/Kg; for SGL (mean ± SE): 20 mL/kg of 20% sucrose orally after 30 minutes, blood drawn one hour after treatment, groups of six rats; for Inhibitory rate (serum glucose level inhibitory rate): mean increase in serum glucose levels of treated vs control groups. The protocol:
Hypoglycemic activity: Hypoglycemic activity was tested by the inhibition of sucrose-induced raise in serum glucose levels (SGL), by the test substances in Albino wistar rats. The procedure involves fasting the rats for overnight at ad libitum water, numbered weighed and randomly divided into groups of six animals each. Prior to treatment blood samples were drawn from sinus orbital plexus of all animals using heparin coated glass capillaries under mild ether anesthesia. The blood samples were tested for serum glucose levels using enzymatic GOD/POD method. […] SGL=(test OD/Standard OD)×100 and the results were expressed in mg/dL. All the groups were treated orally with corresponding test substances, standard, vehicle (5% gum acacia). After 30 minutes, all animals were given 20 mL/kg of 20% sucrose solution orally using gastric tube. One hour after treatment, blood samples were drawn again under mild ether anesthesia and tested for serum glucose levels in a same procedure as described above for initial serum glucose estimation. The data was subjected to statistical treatment using t-test and inhibitory rate was calculated by comparing mean increase in serum glucose levels of control and treated groups. The corosolic acid analogs of this invention are found to show better hypoglycemic activity (Table 1; hypoglycemic activity is expressed in serum glucose level inhibitory rate values; higher the inhibitory rate value, higher is the activity) than the corosolic acid.

A short description of a further data set: in vivo. Particulars: Artemia salina (brine shrimp), pH 8.5; 24 h at 37° C., 10 nauplii per vial. The protocol:
as §1, §2

Usually LC50 stands for the concentration lethal to half of the exposed cells or organisms. Regarding `COc1cc(C(=O)OC(=O)C23CCC(C)C(C)C2C2=CCC4C5(C)CC(O)C(O)C(C)(C)C5CCC4(C)C2(C)CC3)cc(OC)c1OC` (centres unmarked) [Compound 25, Corosolyl tri-O-methylgallate], in data set [1], the LC50 was more than 200 µM. In addition, the “% inhibition of 5-Lox activity” value in the data set on 5-Lipoxygenase (250 μM) was determined as 38.83%. For the same compound, in the data set with Albino wistar rats, the “SGL (mean ± SE)” value is on record as 131.84 ± 7.77 mg/dL and the “Inhibitory rate (serum glucose level inhibitory rate)” value (“Inhibitory rate” below) is recorded as 9.84.

The compound `CC1CCC23CCC4(C)C(=CC(OC2=O)C2C5(C)CC(O)C(O)C(C)(C)C5CCC24C)C3C1C` (stereo not drawn) [Compound 26, 2α,3β-Dihydroxyurs-12-en-11,28-olide] displayed an LC50 in data set [1] of 87 µM. In addition, the “% inhibition of 5-Lox activity” value in the data set with 5-Lipoxygenase (250 μM) is 10.47%. For the same compound, in the data set on Albino wistar rats, the “SGL (mean ± SE)” value came out at 136.03 ± 4.43 mg/dL and the “Inhibitory rate” value is on record as 6.97.

In “in vivo”, `COc1cc([C@@H]2c3cc4c(cc3[C@H](O)[C@H]3COC(=O)[C@H]23)OCO4)cc(OC)c1OC` [podophyllotoxin, Podophyllotoxin, reference compound] had an LC50 at 24 h of 7.7 µM.

In data set [1], `CC1CCC2(C(=O)O)CCC3(C)C(=CCC4C5(C)CC(OC(=O)c6cccnc6)C(O)C(C)(C)C5CCC43C)C2C1C` (centres unmarked) [Compound 3, 2-O-Nicotinoylcorosolic acid] came in with a median lethal concentration (LC50) of 86.6 µM. Besides, the “% inhibition of 5-Lox activity” value in the data set on 5-Lipoxygenase (100 μM) was 28.54%. In addition, the “% inhibition of 5-Lox activity” value in the data set on 5-Lipoxygenase (250 μM) amounted to 53.19%. Further, in the data set on Albino wistar rats, the “SGL (mean ± SE)” value is 115.86 ± 3.77 mg/dL and the “Inhibitory rate” value was 13.9.

The compound `C[C@H]1[C@H](C)CC[C@]2(C(=O)O)CC[C@]3(C)C(=CC[C@@H]4[C@@]5(C)C[C@@H](O)[C@H](O)C(C)(C)[C@@H]5CC[C@]43C)[C@H]12` [Corosolic acid, 2α-hydroxyursolic acid] came in with an LC50 at 24 h in “in vivo” of 3 µM. In addition, the “5-LOX inhibitory activity (in words)” value in the data set with 5-Lipoxygenase is listed as “on par with 3-O-acetyl-11-keto-β-boswellic acid (AKBA)”. Also, in the data set with 5-Lipoxygenase (100 μM), the “% inhibition of 5-Lox activity” value came to 13.48%. For the same compound, the “% inhibition of 5-Lox activity” value with 5-Lipoxygenase (250 μM) is given as 29.26%. In the data set with Albino wistar rats, the “SGL (mean ± SE)” value was 121.43 ± 6.27 mg/dL and the “Inhibitory rate” value is recorded as 9.78.

The compound `COC(=O)[C@]12CC[C@@H](C)[C@H](C)[C@H]1C1=CC[C@@H]3[C@@]4(C)C[C@@H](O)[C@H](O)C(C)(C)[C@@H]4CC[C@@]3(C)[C@]1(C)CC2` [Compound 13, Methyl corosolate] gave a median lethal concentration (LC50) in data set [1] of 10.2 µM. In the data set on 5-Lipoxygenase (100 μM), the “% inhibition of 5-Lox activity” value is recorded as 17.3%. The “% inhibition of 5-Lox activity” value in the data set on 5-Lipoxygenase (250 μM) is listed as 40.04%. For the same compound, in the data set with Albino wistar rats, the “SGL (mean ± SE)” value was 118.94 ± 8.61 mg/dL and the “Inhibitory rate” value was determined as 11.6.

With “2-O-Acetylcorosolic acid and 3-O-acetylcorosolic acid [Compound 1]”, in data set [1], the LC50 worked out at 9.7 µM. In addition, in the data set with 5-Lipoxygenase (100 μM), the “% inhibition of 5-Lox activity” value was 15.47%. Moreover, the “% inhibition of 5-Lox activity” value in the data set on 5-Lipoxygenase (250 μM) worked out at 24.05%. In the data set on Albino wistar rats, the “SGL (mean ± SE)” value is given as 109.54 ± 2.80 mg/dL and the “Inhibitory rate” value is given as 32.75.

Regarding `C[C@H]1[C@H](C)CC[C@]2(C(N)=O)CC[C@]3(C)C(=CC(O)[C@@H]4[C@@]5(C)C[C@@H](O)[C@H](O)C(C)(C)[C@@H]5CC[C@]43C)[C@H]12` (some centres unmarked) [Compound 21, 11-Hydroxycorosolamide], in data set [1], the LC50 was more than 100 µM. In addition, in the data set on 5-Lipoxygenase (100 μM), the “% inhibition of 5-Lox activity” value is on record as 25.57%. Further, in the data set on 5-Lipoxygenase (250 μM), the “% inhibition of 5-Lox activity” value is reported as 50.83%. Moreover, in the data set on Albino wistar rats, the “SGL (mean ± SE)” value turned out to be 121.57 ± 2.62 mg/dL and the “Inhibitory rate” value was found to be 25.37.
